One sequence from patent US12545906B2, “Methods and compositions for selection of functional aptamers” (Aummune Ltd., priority 2018, dated 2026) can be followed below.

In one data set the test system is red blood cells. The data set can be described thus: incubation with red blood cells: agglutination and hemolysis. The data set is classed as cell-based, human. As to conditions: varying concentrations of E8. Here is the method: (§1) Varying concentrations of E8 aptamer candidate were incubated with red blood cells and, separately, with PBMCs from healthy donors to ensure E8 administration is applicable in a clinical setting. No effects of blood agglutination or red blood cell hemolysis were measured.

The subject of another data set is MCF10A cells. The data set can be described thus: selectivity of cell death induction, negative target cells. The data set is classed as cell-based, human. As to conditions: selectivity at the target cell level.
The next data set has as its system MDA-MB-231 cells. The data set can be described thus: effect of E8 on MDA-MB-231 cells. In kind it is cell-based.
Data set [1] deals with PBMCs from healthy donors. The data set can be described thus: cytokine antibody array assay on PBMCs. In kind it is cell-based, human. The note with it: varying concentrations of E8. Here is the method:
as §1

Data set [2] has as its system MDA-MB-231-derived tumors. The data set can be described thus: efficacy of E8 on tumor volume in tumor-bearing mice. The data set is classed as in vivo, NOD/SCID mice. The source says:
White arrows point to tumor locations. […] Inset region is shown magnified on the right, white arrowhead points to tumor site. […] Asterisks denote a statistically difference with p<0.05 (n=8 mice/group). […] Panel F-G show histochemical analysis of caspase-3 activity in tumor-derived tissue sections (Panel F, vehicle-treated; Panel G, E8-treated). Panel H-I show TUNEL analysis of tumor-derived tissue sections (H, vehicle-treated; I, E8-treated).
To evaluate the efficacy of E8 on tumor volume, the PEGylated aptamer was injected once every 2 days during the course of an 11-day period, at a dose of 100 mg/kg (equivalent in molar terms to standard chemotherapy).

For another data set, the system named is TNBC cells. The data set can be described thus: effect of E8 on TNBC cells in mouse serum. The data set is classed as cell-based. From the text:
(§2) The 10 most abundant aptamer sequences are highlighted. Panel B is a representative screening of the 10 most abundant aptamers from Panel A for significant caspase-3/7 activation in comparison to vehicle (V) and random oligonucleotide (R) in TNBC9 cells. Aptamer IDs labeled 1-10 (E1, E2, . . . . E10). […] STA, staurosporine; PAC, paclitaxel; Random, random oligonucleotide.
(See, e.g., Yamashita, M. et al. A novel method for evaluating antibody-dependent cell-mediated cytotoxicity by flow cytometry using cryopreserved human peripheral blood mononuclear cells. Sci. Rep. 6, 19772 (2016); Romano, E. et al. Ipilimumab-dependent cell-mediated cytotoxicity of regulatory T cells ex vivo by nonclassical monocytes in melanoma patients. Proc. Natl. Acad. Sci. U.S.A 112, 6140-6145 (2015); Kumar, R. et al. PD-1 blockade restores impaired function of ex vivo expanded CD8 T cells and enhances apoptosis in mismatch repair deficient EpCAMPD-L1 cancer cells. Onco. Targets. Ther. 10, 3453-3465 (2017), each of which is hereby incorporated by reference.).

The subject of another data set is TNBC9 cells. Briefly: induction of caspase-3/7 activation / target killing in TNBC9 cells. The data set is classed as cell-based, human.
Description: as §2
Functional enrichment of aptamers that mediate apoptosis of patient-derived xenograft (PDX)-derived triple negative breast cancer (TNBC) cells, termed TNBC9 (Example 8) was followed by selection of lead molecules. Based on sequencing analysis (FIG. 10, Panel A), the 10 most abundant sequences in the functionally enriched aptamer population were selected, synthesized, and folded.
The effectiveness of the selected candidate aptamers in target killing was measured on TNBC9 cells. Specifically, candidate aptamers were synthesized, folded, directly tested for induction of caspase-3/7 activation in TNBC9 cells.

In data set [3] the test system is tumor cells in EVOC samples from TNBC patients. The data set can be described thus: human ex-vivo organ cultures (EVOC), graded pathological assessment. In kind it is cell-based. The note with it: 0-4 scale, 2 blinded pathologists; 20-50 μM, two doses, 5 days; EVOC from 2 patients. Here is the method:
Graded pathological assessment was made on a scale of 0-4 by two blinded pathologists. White stars denote samples in which an effect reached a grade of at least 3. Rnd, random.
The efficacy of aptamer E8 (described in Example 10) was evaluated in human ex-vivo organ cultures (EVOC). EVOCs were freshly derived from two representative TNBC patients and were prepared by Curesponse. 250 μm wide tissue slices were plated onto a 24 well plate in culture medium at high oxygen conditions. Cancer cells of the primary tumor were kept viable for up to 14 days.
The E8 aptamer and other chemotherapies (palbociclib, everolimus, fulvestrant) were administered at concentrations of 20-50 μM to the EVOCs. Following day 1, sample medium was replaced and a second dose of the same concentration of therapies were administered. After 5 days, samples were fixed with 4% w/v paraformaldehyde and histological sections were prepared and stained with hematoxylin-eosin. Effects were graded by 2 blinded pathologists on a 0-4 scale.

Setting [4] is: PEGylated aptamer, 100 mg/kg once every 2 days.
[5] abbreviates: following injection of E8 compared to the PBS control.

As to “CGGACTCACGCAAGAGCGTTTGGCAGTGTAAAACTGTTTAACGTATCTGCTCGC (chemistry not given here) [Aptamer E8]”, in the data set on red blood cells, the blood agglutination entry is on record as “No effects” and the “red blood cell hemolysis” value is given as “No effects”. Besides, the “cell killing, negative target cells” value in the data set with MCF10A cells is given as “but not MCF10A cells”. Moreover, the “effect on MDA-MB-231 cells” value in the data set on MDA-MB-231 cells is recorded as “remarkable effect”. Further, the cytokine release entry in data set [1] is “Only minor release of certain cytokines”. Moreover, in data set [2] (setting [4]), the “TUNEL analysis (apoptotic DNA fragmentation) of tumor-derived tissue sections” value is given as “increase in cell death” and the “histochemical analysis of caspase-3 activity in tumor-derived tissue sections” value is reported as “significant staining”. For the same sequence, the “tumor volume change compared to vehicle-treated animals” value in data set [2] (PEGylated aptamer, 100 mg/kg once every 2 days over 11 days) is given as “decreased significantly”. Besides, the “final tumor volume on day 11” value in data set [2] (PEGylated aptamer, 100 mg/kg once every 2 days over 11 days, vehicle 301±51) is on record as 168±39 mm^3. Also, the “macroscopic appearance of extracted tumors” value in data set [2] (PEGylated aptamer, 100 mg/kg once every 2 days, tumors excised day 11) is given as “macroscopic signs of tissue death”. In data set [2] (setting [5]), the body weight result is “No significant changes” and the physical appearance entry is “No significant changes”. Also, the “function in mouse serum” value with TNBC cells is on record as “retained function in mouse serum”. Besides, the “induction of apoptosis (caspase-3/7 activation)” value in the data set on TNBC9 cells (compared to vehicle alone or random oligonucleotides) is “most effective of the selected aptamers at inducing apoptosis”. In the data set with TNBC9 cells (in-vitro and ex-vivo, independent biological replicate experiments), the “level of direct target killing” value was 20-40%. Further, the “cell killing, target cells” value in the data set with TNBC9 cells (selectivity at the target cell level) was “killing TNBC9”. Besides, in data set [3], the “pathological grade of effect on tumor cells” value was 3-4.
